Results as given in publication PMC5269720, “Conformational Change of a Tryptophan Residue in BtuF Facilitates Binding and Transport of Cobinamide by the Vitamin B12 Transporter BtuCD-F” (Scientific Reports, 2017).
Where two headings read alike, the source gives them in different places.

What was measured:
[1] = target: T1, BtuFfluo W66Y (E.c. BtuF) (Escherichia coli, UniProt P37028, Q145C/W66Y); assay: Fluorescence quenching substrate binding assay with BtuFfluo, W66Y mutant; settings: for Kd: BtuFfluo 5 nM, substrate 0.02 nM to 33 μM, 30 min at 10 °C, mean and S.E.M., n = 12
T1 construct: His6; made in house
Method: (§1) For binding assays BtuF was labeled at a cysteine residue in the backbone helix with fluorescein-5-maleimide (Thermo scientific 62245) as described previously. In brief, 50 to 100 μM BtuF Q145C (Invitrogen QuickChange) was labeled with a 10-fold molar excess of fluorescein-5-maleimide (BtuFfluo). The reaction was run over night at 4 °C in the presence of 1 mM TCEP to prevent oxidation and stopped with 5 mM β-mercaptoethanol. Excess label was removed by desalting with PD10 columns and the protein was further purified by size exclusion chromatography. Protein concentration was determined by Bradford assay using BSA for calibration and the labeling efficiency was determined by measuring the absorbance at 494 nm. The labeled protein was flash frozen in liquid nitrogen and stored at −80 °C until the day of use. Final storage buffer was 50 mM HEPES 7, 200 mM NaCl, 0.5 mM EDTA-NaOH 8 and 10% v/v Glycerol.
(§2) The assay is based on monitoring the ligand-induced change in emission of fluorescein attached to BtuF (BtuFfluo). A similar approach has been used to determine the affinity of MBP for maltose in the presence of various sAB[40][41][42]. BtuFfluo at 5 nM was incubated with a range of substrate concentrations from 0.02 nM to 33 μM. After incubation for 30 min at 10 °C the fluorescence intensity was recorded at an excitation wavelength of 485 nm and emission at 528 nm. The maximum signal was recorded in the absence of substrate and decreased with increasing substrate concentration. The difference of the maximum intensity minus the signal at a certain substrate concentration was plotted against the substrate concentration. One site –specific binding in Prism GraphPad was used to fit the data for KD determination (GraphPad Prism version 6.04 for Windows, GraphPad Software, La Jolla California USA, www.graphpad.com”). Binding buffer composition was 50 mM Tris 7.5 and 200 mM NaCl.

[2] = target: T2, BtuFfluo W66E (E.c. BtuF) (Escherichia coli, UniProt P37028, Q145C/W66E); assay: Fluorescence quenching substrate binding assay with BtuFfluo, W66E mutant
T2 construct: His6; made in house
Method: as §1, §2

[3] = target: T3, wild type BtuFfluo (E.c. BtuF) (Escherichia coli, UniProt P37028, Q145C); assay: Fluorescence quenching substrate binding assay with BtuFfluo, wild type; settings: BtuFfluo 5 nM, substrate 0.02 nM to 33 μM, 30 min at 10 °C, mean and S.E.M., n = 12
T3 construct: His6; made in house
Method: as §1, §2

wild type BtuCD-F = target: T4, wild type BtuCD-F (Escherichia coli, UniProt P06609+P37028); assay: In vitro substrate transport assay with liposome reconstituted BtuCD and wild type BtuF; assay type: biochemical
T4 construct: His10 (N); made in house
Method: (§3) BtuCD was expressed, purified and reconstituted as described previously with some modifications regarding buffer composition and reconstitution procedure. In brief, BtuCD with an N-terminal His10-tag on BtuC was purified by IMAC and desalted into a buffer of the following composition: 50 mM Tris 7.5, 500 mm NaCl, 0.5 mM EDTA-NaOH 8 and 0.1% w/v LDAO. Purified protein was used directly for reconstitution into liposomes consisting of E. coli Polar lipids and α-Phosphatidylcholine (3:1 weight ratio, Avanti Polar Lipids 100600 C and 840051 C). Liposomes were destabilized with 0.3% w/v Triton X-100 for 20 min at RT. Protein was added with a ratio of 50:1 LPR and incubated for 90 min at RT. Detergent was removed by BioBeads (40 mg/ml mixture) in 4 steps and proteoliposomes were stored at −80 °C until the day of experiment. The protein concentration within the liposomes was determined by Amido black protein assay using BSA for the calibration curve.
The amount of right-side-in oriented BtuCD in liposomes was determined as described previously for ABC type II importer HmuUV with minor modifications. […] The amount of BtuFfluo associated with the liposomes was determined by measuring the fluorescence signal at an excitation wavelength of 485 nm and an emission wavelength of 516 nm. Unspecific BtuFfluo interaction with liposomes was measured using empty liposomes. […]

[4] = target: T5, BtuFfluo W66A (E.c. BtuF) (Escherichia coli, UniProt P37028, Q145C/W66A); assay: Fluorescence quenching substrate binding assay with BtuFfluo, W66A mutant; settings: BtuFfluo 5 nM, substrate 0.02 nM to 33 μM, 30 min at 10 °C, mean and S.E.M., n = 12
T5 construct: His6; made in house
Method: as §1, §2

[5] = target: T6, BtuFfluo W66H (E.c. BtuF) (Escherichia coli, UniProt P37028, Q145C/W66H); assay: Fluorescence quenching substrate binding assay with BtuFfluo, W66H mutant; settings: for Kd: BtuFfluo 5 nM, substrate 0.02 nM to 33 μM, 30 min at 10 °C, mean and S.E.M., n = 12
T6 construct: His6; made in house
Method: as §1, §2

[6] = target: T7, BtuFfluo W66F (E.c. BtuF) (Escherichia coli, UniProt P37028, Q145C/W66F); assay: Fluorescence quenching substrate binding assay with BtuFfluo, W66F mutant; settings: BtuFfluo 5 nM, substrate 0.02 nM to 33 μM, 30 min at 10 °C, mean and S.E.M., n = 12
T7 construct: His6; made in house
Method: as §1
The assay is based on monitoring the ligand-induced change in emission of fluorescein attached to BtuF (BtuFfluo). A similar approach has been used to determine the affinity of MBP for maltose in the presence of various sAB[40][41][42]. […] After incubation for 30 min at 10 °C the fluorescence intensity was recorded at an excitation wavelength of 485 nm and emission at 528 nm. The maximum signal was recorded in the absence of substrate and decreased with increasing substrate concentration. […]

[7] = system: wild type BtuCD with BtuF W66 mutants (W66A, W66R, W66E, W66F); assay: In vitro substrate transport assay with liposome reconstituted wild type BtuCD and BtuF W66 mutants; assay type: biochemical, Escherichia coli; settings: 4 mg/ml proteoliposomes (~0.5 μM total BtuCD), 1 μM BtuF, 2 mM ATP, 15 μM cobinamide or cyanocobalamin
Method: as §3
The amount of right-side-in oriented BtuCD in liposomes was determined as described previously for ABC type II importer HmuUV with minor modifications. Briefly, liposome-reconstituted BtuCD was incubated with 1 μM fluorescently labeled BtuF (BtuFfluo) for 30 min at RT followed by a spin to remove excess BtuFfluo. The pellet was washed and resuspended at 1.25 mg/ml liposome concentration. The amount of BtuFfluo associated with the liposomes was determined by measuring the fluorescence signal at an excitation wavelength of 485 nm and an emission wavelength of 516 nm. Unspecific BtuFfluo interaction with liposomes was measured using empty liposomes.
For the substrate transport assays radiolabeled ^14C-cyano-aquo-cobinamide (^14CN-Cbi, labeled in house) or ^57Co-cyanocobalamin (^57Co-Cbl, MP Biomedicals 06B-430000, 10.5 uCi) was used. […] The radioactivity trapped on the filters was measured either by a β counter using LCS in case of ^14CN-Cbi or a γ counter in case of ^57Co-Cbl. Initial transport rates were determined by using linear regression in PrismGraphpad.

[8] = target: T8, BtuFfluo W66L (E.c. BtuF) (Escherichia coli, UniProt P37028, Q145C/W66L); assay: Fluorescence quenching substrate binding assay with BtuFfluo, W66L mutant; settings: for Kd: BtuFfluo 5 nM, substrate 0.02 nM to 33 μM, 30 min at 10 °C, mean and S.E.M., n = 12
T8 construct: His6; made in house
Method: as §1, §2

[9] = target: T9, BtuFfluo W66R (E.c. BtuF) (Escherichia coli, UniProt P37028, Q145C/W66R); assay: Fluorescence quenching substrate binding assay with BtuFfluo, W66R mutant; settings: for decrease in affinity compared to wt: W66R (arginine) versus wild type BtuF; for Kd: BtuFfluo 5 nM, substrate 0.02 nM to 33 μM, 30 min at 10 °C, mean and S.E.M., n = 9
T9 construct: His6; made in house
Method: as §1, §2

T3 sequence (P37028 23-266 Q145C): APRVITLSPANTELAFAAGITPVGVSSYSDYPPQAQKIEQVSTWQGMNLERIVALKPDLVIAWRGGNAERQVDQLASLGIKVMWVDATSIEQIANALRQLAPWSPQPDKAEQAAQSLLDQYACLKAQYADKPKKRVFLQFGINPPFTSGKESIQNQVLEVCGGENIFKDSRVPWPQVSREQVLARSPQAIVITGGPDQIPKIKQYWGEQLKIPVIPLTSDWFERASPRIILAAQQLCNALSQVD
T6 sequence (P37028 23-266 W66H/Q145C): as the sequence (P37028 23-266 Q145C) above, with W44H counted along it
T1 sequence (P37028 23-266 W66Y/Q145C): as the sequence (P37028 23-266 Q145C) above, with W44Y counted along it
T9 sequence (P37028 23-266 W66R/Q145C): as the sequence (P37028 23-266 Q145C) above, with W44R counted along it
T8 sequence (P37028 23-266 W66L/Q145C): as the sequence (P37028 23-266 Q145C) above, with W44L counted along it
T2 sequence (P37028 23-266 W66E/Q145C): as the sequence (P37028 23-266 Q145C) above, with W44E counted along it
T5 sequence (P37028 23-266 W66A/Q145C): as the sequence (P37028 23-266 Q145C) above, with W44A counted along it
T7 sequence (P37028 23-266 W66F/Q145C): as the sequence (P37028 23-266 Q145C) above, with W44F counted along it
T4 sequence (P06609 whole entry): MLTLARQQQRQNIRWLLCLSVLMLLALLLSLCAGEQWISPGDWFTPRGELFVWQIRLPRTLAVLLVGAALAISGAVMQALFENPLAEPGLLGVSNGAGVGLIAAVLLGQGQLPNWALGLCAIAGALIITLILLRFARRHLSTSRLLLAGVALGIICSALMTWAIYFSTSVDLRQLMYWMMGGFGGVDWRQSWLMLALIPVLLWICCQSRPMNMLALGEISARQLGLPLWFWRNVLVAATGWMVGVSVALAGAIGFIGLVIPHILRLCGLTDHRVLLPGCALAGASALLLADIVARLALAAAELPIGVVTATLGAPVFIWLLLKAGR
T4 sequence (P37028 23-266): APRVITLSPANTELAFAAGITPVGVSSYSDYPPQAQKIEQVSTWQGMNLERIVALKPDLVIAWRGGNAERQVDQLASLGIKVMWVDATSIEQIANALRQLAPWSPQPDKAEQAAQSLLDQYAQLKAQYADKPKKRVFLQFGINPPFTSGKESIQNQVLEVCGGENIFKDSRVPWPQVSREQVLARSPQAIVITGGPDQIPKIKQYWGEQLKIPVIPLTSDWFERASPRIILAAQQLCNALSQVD
T4 sequence (P06611 whole entry, further chain): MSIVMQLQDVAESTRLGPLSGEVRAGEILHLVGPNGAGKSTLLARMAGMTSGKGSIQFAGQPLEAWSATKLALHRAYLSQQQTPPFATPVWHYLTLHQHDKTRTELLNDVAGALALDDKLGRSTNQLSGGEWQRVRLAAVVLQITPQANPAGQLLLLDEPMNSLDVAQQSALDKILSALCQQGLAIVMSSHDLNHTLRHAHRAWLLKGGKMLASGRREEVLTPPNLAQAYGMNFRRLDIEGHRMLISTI

C/C1=C2/[N-][C@H]([C@H](CC(N)=O)[C@@]2(C)CCC(=O)NC[C@@H](C)O)[C@]2(C)N=C(/C(C)=C3N=C(/C=C4N=C1[C@@H](CCC(N)=O)C\4(C)C)[C@@H](CCC(N)=O)[C@]\3(C)CC(N)=O)[C@@H](CCC(N)=O)[C@]2(C)CC(N)=O.[Co+3] [Cbi, cobinamide]
reduced affinity compared to wt ([1]; W66Y (tyrosine) versus wild type BtuF): 3 fold
Kd ([1]; di-CN-Cbi, read-out: KD of Cbi): 0.15 ± 0.03 µM
KD of Cbi ([2]; di-CN-Cbi, BtuFfluo 5 nM, substrate 0.02 nM to 33 μM, 30 min at 10 °C, mean and S.E.M., n = 12): low micromolar range
Kd ([2]; di-CN-Cbi, BtuFfluo 5 nM, substrate 0.02 nM to 33 μM, 30 min at 10 °C, mean and S.E.M., n = 12, read-out: KD of Cbi): 2.9 ± 0.8 µM
Kd ([3]; di-CN-Cbi, read-out: KD of Cbi): 0.04 ± 0.01 µM
initial transport rate (wild type BtuCD-F; 14CN-Cbi, 4 mg/ml proteoliposomes (~0.5 μM total BtuCD), 1 μM BtuF, 15 μM cobinamide, 2 mM ATP, 22 °C, corrected for right-side-in oriented transporters, mean ± S.E.M., n = 6): 0.7 ± 0.2 nmol Cbi/mg protein/min
in vitro turnover number for Cbi transport, slower than that of Cbl transport (wild type BtuCD-F; calculated, Cbi versus Cbl transport by wild type BtuCD-F): approximately 1.5 fold
KD of Cbi ([4]; di-CN-Cbi): low micromolar range
Kd ([4]; di-CN-Cbi, read-out: KD of Cbi): 1.8 ± 0.8 µM
reduced affinity compared to wt ([5]; W66H (histidine) versus wild type BtuF): more than 10 fold
Kd ([5]; di-CN-Cbi, read-out: KD of Cbi): 0.5 ± 0.1 µM
Kd ([6]; di-CN-Cbi, read-out: KD of Cbi): 0.03 ± 0.007 µM
effect of BtuF W66X substitution on in vitro transport rate [7]: hardly affected
effect of BtuF W66X substitution on in vitro transport rate ([7]; listed as cobinamide): not influenced
reduced affinity compared to wt ([8]; W66L (leucine) versus wild type BtuF): 3 fold
Kd ([8]; di-CN-Cbi, read-out: KD of Cbi): 0.12 ± 0.02 µM
decrease in affinity compared to wt [9]: more than 10 fold
Kd ([9]; di-CN-Cbi, read-out: KD of Cbi): 0.8 ± 0.2 µM

cyanocobalamin [Cbl]
Kd ([1]; CN-Cbl, read-out: KD of Cbl): 0.0057 ± 0.0017 µM
Kd ([2]; CN-Cbl, BtuFfluo 5 nM, substrate 0.02 nM to 33 μM, 30 min at 10 °C, mean and S.E.M., n = 12, read-out: KD of Cbl): 0.057 ± 0.015 µM
decrease in affinity compared to wt ([2]; W66E (glutamate) versus wild type BtuF): ~ 7 fold
KD of Cbl ([3]; CN-Cbl): low nM range
Kd ([3]; CN-Cbl, read-out: KD of Cbl): 0.0091 ± 0.0026 µM
Kd ([4]; CN-Cbl, read-out: KD of Cbl): 0.014 ± 0.004 µM
Kd ([5]; CN-Cbl, read-out: KD of Cbl): 0.0055 ± 0.0017 µM
Kd ([6]; CN-Cbl, read-out: KD of Cbl): 0.008 ± 0.0019 µM
effect of BtuF W66X substitution on in vitro transport rate [7]: not influenced
Kd ([8]; CN-Cbl, read-out: KD of Cbl): 0.015 ± 0.002 µM
Kd ([9]; CN-Cbl, read-out: KD of Cbl): 0.068 ± 0.013 µM
decrease in affinity compared to wt [9]: ~ 7 fold
